Measured values: patent US20100261734A1, “Methods of Treating Bladder Dysfunction Using Netupitant” (Helsinn Healthcare S.A., priority 2009, published 2010)
Like-named read-outs stand apart in the source and are kept apart here.

Columns and labels:
[1] = tested on: acetic acid (AA)-induced overactive bladder (OAB); experiment: Cystometric parameters in acetic acid (AA)-induced overactive bladder (OAB) in anesthetized guinea-pigs; type: in vivo; conditions: for Maximal ICI (intercontraction interval) increase, % of variation from basal values: 0.2% AA bladder infusion, anesthetized guinea-pigs; for Effect on ICI (intercontraction interval): from 10 min up to 60 min post-administration, 0.2% AA
From the text: The effect of netupitant (N) was studied on cystometric parameters in acetic acid (AA)-induced overactive bladder (OAB) in anesthetized guinea-pigs. Results were compared with those obtained with a control and L-733,060 (L), another potent and selective NK1 receptor antagonist. Adult female guinea-pigs were anesthetized with urethane, and the jugular vein and urinary bladder were catheterized for drug administration and intravesical pressure recording, respectively. The urinary bladder was continuously infused with either saline or 0.2% AA. After 30 min stabilization, N, L or their vehicle (glucose 5%) were administered in separate animals (n=10 per group). Intercontraction interval (ICI, sec), and amplitude of micturition (AM, mmHg) were analyzed at 10, 20, 40 and 60 min post administration. For each dose, maximal effects were expressed as % of variation from respective basal values. ED50% (doses inducing a 50% increase in ICI) were calculated using linear regressions.

[2] = Pharmacokinetic profile of netupitant in humans after a single oral dose; type: in vivo; conditions: for Cl/F / Kel / tlag / AUC(0-inf) / AUC(0-t) / Cmax / Tmax / half-life / Vd/F: healthy volunteers, mean, N = 4; for AUC(0-inf) / AUC(0-t) / Cmax / Tmax / half-life / Vd/F: human, plasma; for Vd/F: read-out: Vz/F
Method: The pharmacokinetic profile of netupitant (N) in humans was examined in a randomised, double-blind, placebo controlled study comprising 5 dose groups (10, 30, 100, 300 and 450 mg) with 6 subjects in each group, of whom four received netupitant and two received placebo.

SMILES: FC(F)(F)c1cc(CO[C@H]2CCCN[C@H]2c2ccccc2)cc(C(F)(F)F)c1 [L-733,060, reference compound]
- Maximal ICI (intercontraction interval) increase, % of variation from basal values ([1]; 3 mg/kg i.v.): +40±10%
- Maximal ICI (intercontraction interval) increase, % of variation from basal values ([1]; 10 mg/kg i.v.): +76±11%
- Maximal effect on amplitude of micturition (AM), % of variation from basal values ([1]; 10 mg/kg, 10 min after administration): −28±5%
- Effect on amplitude of micturition (AM) ([1]; 10 mg/kg, p<0.05 versus basal values): decreased significantly AM
- Effect on ICI (intercontraction interval) [1]: dose-dependently and significantly increased ICI
- ED50% (dose inducing a 50% increase in ICI) ([1]; i.v., calculated using linear regressions): 5.13 mg/kg

SMILES: Cc1ccccc1-c1cc(N2CCN(C)CC2)ncc1N(C)C(=O)C(C)(C)c1cc(C(F)(F)F)cc(C(F)(F)F)c1 [netupitant, 2-[3,5-bis(trifluoromethyl)phenyl]-N,2-dimethyl-N-[4-(2-methylphenyl)-6-(4-methylpiperazin-1-yl)pyridin-3-yl]propanamide]
- Maximal ICI (intercontraction interval) increase, % of variation from basal values ([1]; 0.1 mg/kg i.v.): +51±15%
- Maximal ICI (intercontraction interval) increase, % of variation from basal values ([1]; 0.3 mg/kg i.v.): +44±8%
- Maximal ICI (intercontraction interval) increase, % of variation from basal values ([1]; 1 mg/kg i.v.): +69±8%
- Maximal effect on amplitude of micturition (AM), % of variation from basal values ([1]; 1 mg/kg, 20 min after administration): −13±6%
- Maximal ICI (intercontraction interval) increase, % of variation from basal values ([1]; 3 mg/kg i.v.): +96±20%
- ED50 ([1]; Cavia porcellus, iv, calculated using linear regressions, read-out: ED50% (dose inducing a 50% increase in ICI)): 0.62 mg/kg
- Potency relative to L in view of ED50% values ([1]; N versus L): about 16 fold
- Effect on amplitude of micturition (AM) ([1]; doses 0.1-3 mg/kg): devoid of significant effect on AM
- Effect on ICI (intercontraction interval) [1]: dose-dependently and significantly increased ICI
- Cl/F ([2]; 10 mg oral): 44.0 L/h
- Kel ([2]; 10 mg oral): 0.0435 h⁻¹
- tlag ([2]; 10 mg oral): 1.88 h
- Cl/F ([2]; 30 mg oral): 35.5 L/h
- Kel ([2]; 30 mg oral): 0.027 h⁻¹
- tlag ([2]; 30 mg oral): 1.75 h
- Cl/F ([2]; 100 mg oral): 22.1 L/h
- Kel ([2]; 100 mg oral): 0.0139 h⁻¹
- tlag ([2]; 100 mg oral): 1.88 h
- Cl/F ([2]; 300 mg oral): 12.6 L/h
- Kel ([2]; 300 mg oral): 0.0154 h⁻¹
- tlag ([2]; 300 mg oral): 0.81 h
- Cl/F ([2]; 450 mg oral): 10.6 L/h
- Kel ([2]; 450 mg oral): 0.0124 h⁻¹
- tlag ([2]; 450 mg oral): 1.26 h
- AUC(0-inf) ([2]; 10 mg oral): 233 ng·h/mL
- AUC(0-t) ([2]; 10 mg oral): 140 ng·h/mL
- Cmax ([2]; 10 mg oral): 8.76 ng/mL
- Tmax ([2]; 10 mg oral): 5.75 h
- half-life ([2]; 10 mg oral): 16 h
- Vd/F ([2]; 10 mg oral): 1010 L
- AUC(0-inf) ([2]; 30 mg oral): 995 ng·h/mL
- AUC(0-t) ([2]; 30 mg oral): 870 ng·h/mL
- Cmax ([2]; 30 mg oral): 36 ng/mL
- Tmax ([2]; 30 mg oral): 5.76 h
- half-life ([2]; 30 mg oral): 29.1 h
- Vd/F ([2]; 30 mg oral): 1320 L
- AUC(0-inf) ([2]; 100 mg oral): 4800 ng·h/mL
- AUC(0-t) ([2]; 100 mg oral): 4360 ng·h/mL
- Cmax ([2]; 100 mg oral): 168 ng/mL
- Tmax ([2]; 100 mg oral): 5 h
- half-life ([2]; 100 mg oral): 54.2 h
- Vd/F ([2]; 100 mg oral): 1710 L
- AUC(0-inf) ([2]; 300 mg oral): 25200 ng·h/mL
- AUC(0-t) ([2]; 300 mg oral): 23100 ng·h/mL
- Cmax ([2]; 300 mg oral): 747 ng/mL
- Tmax ([2]; 300 mg oral): 5 h
- half-life ([2]; 300 mg oral): 48.1 h
- Vd/F ([2]; 300 mg oral): 850 L
- AUC(0-inf) ([2]; 450 mg oral): 43700 ng·h/mL
- AUC(0-t) ([2]; 450 mg oral): 36600 ng·h/mL
- Cmax ([2]; 450 mg oral): 1130 ng/mL
- Tmax ([2]; 450 mg oral): 5.76 h
- half-life ([2]; 450 mg oral): 59.7 h
- Vd/F ([2]; 450 mg oral): 881 L
- Plasma exposure (Cmax and AUC) versus dose ([2]; oral 10-450 mg, humans): increased super-proportionally with dose
- Time at which maximum plasma levels are reached post-dose ([2]; oral administration, humans): approximately 5 hours
